In general, pKd refers to −log10 of the Kd, conventionally taken in molar units.

pKd: −log10 of the molar value. Like-named read-outs stand apart in the source and are kept apart here.

From PMC12926044, “Nootropic benzothiazoles promote dendritic spine formation by targeting fascin-1” (The Journal of Biological Chemistry, 2025) come the findings set out here.

This assay addresses T1, fascin-1 (Homo sapiens, UniProt Q16658).
T1 construct: gene FSCN1; recombinant, E. coli BL21(DE3), pGEX-5X-2 GST fusion, GST cut off with thrombin; monomer
The assay can be described thus: isothermal titration calorimetry. It counts as binding.

On to `Cc1ccc2nc(-c3ccc(NCCOCCOCCOCCOCCOCCO)cc3)sc2c1` [BTA-EG6], for which the pKd (read-out: Kd) is roughly 5.30. For the molecule `O=C(Nc1nn(Cc2ccc(C(F)(F)F)cc2)c2ccccc12)c1ccco1` [G2], the Kd entry (50 mM Hepes pH 7.5, 150 mM NaCl, 25 °C, proposed site 2) is “Kd values of G2 to WT fascin-1 and seven fascin-1 mutant proteins”.
